According to paper PMC7180638, “Synthesis of Pyrrolidine Monocyclic Analogues of Pochonicine and Its Stereoisomers: Pursuit of Simplified Structures and Potent β-N-Acetylhexosaminidase Inhibition” (Molecules, 2020):
Where a name gives a salt, the structure may show the parent alone. Read-outs that look alike come from different tables or passages of the source.

How the values were obtained:
Assay type in all cases: biochemical
α-Glucosidase (Rice) = molecular target: T1, α-Glucosidase (Rice) (Oryza sativa subsp. japonica, UniProt Q653V7); assay: α-Glucosidase (rice) inhibition
T1 construct: purchased Sigma-Aldrich Chemical Co
Procedure: (§1) With rat intestinal maltase as an exception, other enzymes were purchased from Sigma-Aldrich Chemical Co. (St. Louis, MO, USA). Brush border membranes prepared from rat small intestine according to the method of Kessler et al. were assayed at pH 6.8 for rat intestinal maltase using maltose. The released D-glucose was determined colorimetrically using the Glucose CII-test Wako (Wako Pure Chemical Ind.; Osaka, Japan). Other glycosidase activities were determined using an appropriate p-nitrophenyl glycoside as substrate in a buffer solution at the optimal pH value of each enzyme. The reaction was stopped by adding 400 mM Na2CO3. The released p-nitrophenol was measured spectrometrically at 400 nm.

Rat intestinal maltase = Rat intestinal maltase inhibition; details: α-Glucosidase
Procedure: as §1

β-Glucosidase (Almond) = assay: β-Glucosidase (almond) inhibition
Procedure: as §1

[1] = molecular target: β-Glucosidase (Bovine liver); assay: β-Glucosidase (bovine liver) inhibition
Procedure: as §1

[2] = molecular target: T2, α-Galactosidase (Coffee beans) (Coffea arabica, UniProt Q42656); assay: α-Galactosidase (coffee beans) inhibition
T2 construct: purchased Sigma-Aldrich Chemical Co
Procedure: as §1

[3] = molecular target: T3, β-Galactosidase (Bovine liver) (Bos taurus, UniProt F1MNT6); assay: β-Galactosidase (bovine liver) inhibition
T3 sequence (F1MNT6 1-469): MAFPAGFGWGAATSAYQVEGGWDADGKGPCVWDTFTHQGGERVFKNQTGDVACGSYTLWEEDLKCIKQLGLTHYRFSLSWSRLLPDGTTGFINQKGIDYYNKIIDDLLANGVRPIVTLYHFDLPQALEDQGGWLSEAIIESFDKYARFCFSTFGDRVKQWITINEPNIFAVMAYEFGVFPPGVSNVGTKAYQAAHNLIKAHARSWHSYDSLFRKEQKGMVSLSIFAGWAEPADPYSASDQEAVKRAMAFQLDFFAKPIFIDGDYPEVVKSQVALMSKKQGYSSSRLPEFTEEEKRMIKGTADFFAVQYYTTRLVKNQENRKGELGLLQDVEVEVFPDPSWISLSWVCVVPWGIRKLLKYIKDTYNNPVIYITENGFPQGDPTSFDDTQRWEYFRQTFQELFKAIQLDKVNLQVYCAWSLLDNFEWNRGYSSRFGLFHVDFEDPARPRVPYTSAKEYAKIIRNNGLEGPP
Procedure: as §1

β-Mannosidase (Snail) = assay: β-Mannosidase (snail) inhibition
Procedure: as §1

[4] = molecular target: T4, Amyloglucosidase (A. niger) (Aspergillus niger, UniProt P69328); assay: Amyloglucosidase (A. niger) inhibition
T4 construct: purchased Sigma-Aldrich Chemical Co
Procedure: as §1

[5] = molecular target: T5, β-Glucuronidase (Bovine liver) (Bos taurus, UniProt A3KMY8); assay: β-Glucuronidase (bovine liver) inhibition
T5 construct: purchased Sigma-Aldrich Chemical Co; host or cells: bovine liver
T5 sequence (A3KMY8 1-652): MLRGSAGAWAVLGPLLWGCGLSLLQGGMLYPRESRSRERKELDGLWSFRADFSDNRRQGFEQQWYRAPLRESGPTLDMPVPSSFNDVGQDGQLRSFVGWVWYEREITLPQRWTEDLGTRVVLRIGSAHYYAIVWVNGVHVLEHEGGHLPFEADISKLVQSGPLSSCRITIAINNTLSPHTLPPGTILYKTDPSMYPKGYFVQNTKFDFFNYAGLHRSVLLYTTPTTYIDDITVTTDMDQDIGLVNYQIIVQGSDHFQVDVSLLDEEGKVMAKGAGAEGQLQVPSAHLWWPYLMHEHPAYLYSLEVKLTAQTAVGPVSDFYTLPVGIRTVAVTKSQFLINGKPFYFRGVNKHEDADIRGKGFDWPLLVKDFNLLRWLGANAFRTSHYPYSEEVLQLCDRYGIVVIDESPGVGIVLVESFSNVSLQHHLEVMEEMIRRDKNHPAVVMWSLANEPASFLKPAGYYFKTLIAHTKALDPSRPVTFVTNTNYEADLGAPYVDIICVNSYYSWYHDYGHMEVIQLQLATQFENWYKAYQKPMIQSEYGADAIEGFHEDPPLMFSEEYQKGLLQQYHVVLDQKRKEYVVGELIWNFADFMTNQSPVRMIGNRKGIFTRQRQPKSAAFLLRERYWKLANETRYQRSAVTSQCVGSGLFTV
Procedure: as §1

[6] = molecular target: β-N-Acetylhexosaminidase (Bovine liver); assay: β-N-Acetylhexosaminidase (bovine liver) inhibition; details: for IC50: β-N-Acetylhexosaminidase (β-GlcNAcase); for Inhibition % at 1000 μM: β-N-Acetylhexosaminidase
Procedure: as §1

[7] = molecular target: β-N-Acetylhexosaminidase (Jack bean); assay: β-N-Acetylhexosaminidase (Jack bean) inhibition; details: for IC50: β-N-Acetylhexosaminidase (β-GlcNAcase)
Procedure: as §1

[8] = molecular target: T6, α-N-Acetylgalactosaminidase (Chicken liver) (Gallus gallus, UniProt Q90744); assay: α-N-Acetylgalactosaminidase (chicken liver) inhibition
T6 construct: purchased Sigma-Aldrich Chemical Co; host or cells: chicken liver
T6 sequence (Q90744 1-405): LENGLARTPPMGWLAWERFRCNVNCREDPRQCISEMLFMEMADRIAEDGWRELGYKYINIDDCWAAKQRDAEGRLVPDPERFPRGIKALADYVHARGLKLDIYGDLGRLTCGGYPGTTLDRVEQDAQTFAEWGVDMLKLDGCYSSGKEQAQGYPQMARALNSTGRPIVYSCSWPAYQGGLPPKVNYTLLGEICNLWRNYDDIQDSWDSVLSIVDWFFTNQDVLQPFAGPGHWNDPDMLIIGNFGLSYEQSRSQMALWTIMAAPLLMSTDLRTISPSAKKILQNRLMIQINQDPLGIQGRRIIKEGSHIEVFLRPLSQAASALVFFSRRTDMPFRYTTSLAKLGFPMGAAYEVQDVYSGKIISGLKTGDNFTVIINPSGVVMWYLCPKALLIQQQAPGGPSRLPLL
Procedure: as §1

[9] = 1000 μM, read-out: Inhibition % at 1000 μM

T4 sequence (P69328 25-640): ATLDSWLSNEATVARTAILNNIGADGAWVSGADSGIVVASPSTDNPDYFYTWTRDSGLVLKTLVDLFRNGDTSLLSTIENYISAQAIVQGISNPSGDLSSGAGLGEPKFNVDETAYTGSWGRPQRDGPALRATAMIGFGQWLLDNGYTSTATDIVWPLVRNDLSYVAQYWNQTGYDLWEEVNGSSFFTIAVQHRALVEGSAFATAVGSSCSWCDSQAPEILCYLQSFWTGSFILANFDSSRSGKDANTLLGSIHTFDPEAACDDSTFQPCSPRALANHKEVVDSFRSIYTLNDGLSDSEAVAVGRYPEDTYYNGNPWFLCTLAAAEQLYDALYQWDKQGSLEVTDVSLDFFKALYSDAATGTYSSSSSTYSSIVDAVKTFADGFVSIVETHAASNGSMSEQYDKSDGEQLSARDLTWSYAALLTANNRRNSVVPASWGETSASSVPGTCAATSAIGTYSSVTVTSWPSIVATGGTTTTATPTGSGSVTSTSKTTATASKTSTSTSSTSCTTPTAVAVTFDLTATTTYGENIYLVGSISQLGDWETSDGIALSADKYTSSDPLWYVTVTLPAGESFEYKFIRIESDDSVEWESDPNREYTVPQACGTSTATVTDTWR
T2 sequence (Q42656 16-378): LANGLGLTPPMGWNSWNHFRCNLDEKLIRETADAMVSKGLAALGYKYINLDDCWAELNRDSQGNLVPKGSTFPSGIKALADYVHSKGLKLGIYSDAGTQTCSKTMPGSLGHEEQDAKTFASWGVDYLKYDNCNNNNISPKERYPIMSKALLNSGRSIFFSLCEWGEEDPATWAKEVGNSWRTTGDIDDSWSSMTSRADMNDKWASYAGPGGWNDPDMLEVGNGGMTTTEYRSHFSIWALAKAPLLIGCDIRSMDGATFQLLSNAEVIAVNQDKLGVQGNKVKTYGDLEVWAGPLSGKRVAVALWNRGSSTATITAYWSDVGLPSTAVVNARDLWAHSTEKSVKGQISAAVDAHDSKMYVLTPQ
T1 sequence (Q653V7 34-885): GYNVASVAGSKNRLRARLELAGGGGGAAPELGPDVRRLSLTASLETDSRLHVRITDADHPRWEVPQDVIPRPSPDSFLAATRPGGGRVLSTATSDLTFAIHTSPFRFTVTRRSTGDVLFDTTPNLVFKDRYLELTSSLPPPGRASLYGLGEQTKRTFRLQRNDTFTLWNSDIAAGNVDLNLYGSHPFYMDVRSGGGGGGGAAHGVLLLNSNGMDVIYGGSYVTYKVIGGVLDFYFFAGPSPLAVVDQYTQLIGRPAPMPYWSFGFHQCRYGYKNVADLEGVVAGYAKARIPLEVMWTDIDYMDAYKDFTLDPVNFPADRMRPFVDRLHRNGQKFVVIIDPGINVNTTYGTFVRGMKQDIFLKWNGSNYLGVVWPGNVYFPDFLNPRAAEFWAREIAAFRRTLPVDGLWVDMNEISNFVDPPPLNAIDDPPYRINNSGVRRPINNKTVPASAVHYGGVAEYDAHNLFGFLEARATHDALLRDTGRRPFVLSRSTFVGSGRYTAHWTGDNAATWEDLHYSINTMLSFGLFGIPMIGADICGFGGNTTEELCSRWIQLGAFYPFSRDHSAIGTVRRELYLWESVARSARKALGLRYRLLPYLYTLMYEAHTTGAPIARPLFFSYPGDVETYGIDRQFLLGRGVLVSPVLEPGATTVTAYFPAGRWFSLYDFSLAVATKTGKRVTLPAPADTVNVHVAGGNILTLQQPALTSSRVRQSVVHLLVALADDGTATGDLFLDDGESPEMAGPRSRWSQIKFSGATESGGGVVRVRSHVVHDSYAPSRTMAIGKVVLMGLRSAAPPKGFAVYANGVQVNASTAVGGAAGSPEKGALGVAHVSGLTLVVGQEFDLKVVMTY

Row | SMILES | inhibition at 1000 µM (α-Glucosidase (Rice); [9]) | inhibition at 1000 µM (α-Glucosidase (Rice); read-out: IC50) | IC50 (Rat intestinal maltase) | Inhibition % at 1000 μM (Rat intestinal maltase) | IC50 (β-Glucosidase (Almond)) | Inhibition % at 1000 μM (β-Glucosidase (Almond)) | IC50 [1] | Inhibition % at 1000 μM [1] | inhibition at 1000 µM [2, 9] | inhibition at 1000 µM ([2]; read-out: IC50) | inhibition at 1000 µM [3, 9] | inhibition at 1000 µM ([3]; read-out: IC50) | IC50 (β-Mannosidase (Snail)) | Inhibition % at 1000 μM (β-Mannosidase (Snail)) | inhibition at 1000 µM [4, 9] | inhibition at 1000 µM ([4]; read-out: IC50) | inhibition at 1000 µM [5, 9] | inhibition at 1000 µM ([5]; read-out: IC50) | inhibition at 1000 µM [8, 9] | inhibition at 1000 µM ([8]; read-out: IC50) | also measured
1 | CC(=O)NC[C@@H]1N[C@H](CO)[C@H](O)[C@H]1O [F-10a, 1-N-acetylamino-2,5-imino-1,2,5-trideoxy-L-glucitol hydrochloride] | 12.5% | < 50% | NI (No Inhibition (less than 50% at 1000 μM)) | 14.6% | NI (No Inhibition (less than 50% at 1000 μM)) | 11.6% | NI (No Inhibition (less than 50% at 1000 μM)) | 0.3% | 0.36% | < 50% | 4.2% | < 50% | NI (No Inhibition (less than 50% at 1000 μM)) | 3.23% | 2.8% | < 50% | 0% | < 50% | 0% | < 50% | IC50 [6]: NI (No Inhibition (less than 50% at 1000 μM)); Inhibition % at 1000 μM [6]: 23.2%; IC50 [7]: NI (No Inhibition (less than 50% at 1000 μM)); Inhibition % at 1000 μM ([7]; β-N-Acetylhexosaminidase, 1000 μM): 42%
2 | CC(=O)NC[C@H]1N[C@H](CO)[C@H](O)[C@H]1O [F-10b, 1-N-acetylamino-2,5-imino-1,2,5-trideoxy-D-iditol hydrochloride] | 0% | < 50% | NI (No Inhibition (less than 50% at 1000 μM)) | 12.7% | NI (No Inhibition (less than 50% at 1000 μM)) | 19.8% | NI (No Inhibition (less than 50% at 1000 μM)) | 0% | 0% | < 50% | 4.2% | < 50% | NI (No Inhibition (less than 50% at 1000 μM)) | 0% | 5.7% | < 50% | 0% | < 50% | 2.3% | < 50% | IC50 ([6]; read-out: IC50): 652 µM; IC50 ([7]; read-out: IC50): 98 µM
3 | CC(=O)NC[C@H]1N[C@@H](CO)[C@H](O)[C@@H]1O [G-10, 1-N-acetylamino-2,5-imino-1,2,5-trideoxy-D-allitol hydrochloride] | 0% | < 50% | NI (No Inhibition (less than 50% at 1000 μM)) | 16.0% | NI (No Inhibition (less than 50% at 1000 μM)) | 15.3% | NI (No Inhibition (less than 50% at 1000 μM)) | 0% | 0% | < 50% | 2.9% | < 50% | NI (No Inhibition (less than 50% at 1000 μM)) | 0% | 7.6% | < 50% | 0% | < 50% | 2.3% | < 50% | IC50 ([6]; read-out: IC50): 299 µM; IC50 ([7]; read-out: IC50): 26 µM
4 | CC(=O)NC[C@@H]1N[C@H](CO)[C@@H](O)[C@H]1O [H-10, 1-N-acetylamino-2,5-imino-1,2,5-trideoxy-L-allitol hydrochloride] | 5.6% | < 50% | NI (No Inhibition (less than 50% at 1000 μM)) | 13.6% | NI (No Inhibition (less than 50% at 1000 μM)) | 17.1% | NI (No Inhibition (less than 50% at 1000 μM)) | 1.7% | 0% | < 50% | 3.6% | < 50% | NI (No Inhibition (less than 50% at 1000 μM)) | 0% | 8.3% | < 50% | 0% | < 50% | 6.1% | < 50% | IC50 [6]: NI (No Inhibition (less than 50% at 1000 μM)); Inhibition % at 1000 μM [6]: 33.7%; IC50 ([7]; read-out: IC50): 241 µM
